Measurements: a melting point compilation (Tetko et al.; mined from patent text by program, amines drawn as free bases though some values may be those of a salt)

Row | SMILES | melting point
1 | CCN(CC)CCOc1ccc(Nc2ncc3ccc(=O)n(C(C)C)c3n2)cc1 | 84 to 85 °C
2 | Cn1c(=O)n2nc(CO)cc2c2ccccc21 | 183 to 184 °C
3 | Nc1c(-n2cncn2)cnn1-c1c(Cl)cc(C(F)(F)F)cc1Cl | 170 to 174 °C
4 | CCCCOc1cc2cc(C(=O)OC)c(C(=O)OC)c(-c3ccncc3)c2cc1OC | 149 to 151 °C
5 | CCCCN1C(=O)C(C)(C)N=C(c2ccccc2F)c2cc([N+](=O)[O-])cc(Cl)c21 | 151 °C
6 | O=C(Nc1ccccc1)c1ccc(F)c(Nc2ccccc2)c1 | 132 to 133 °C
7 | N#CN=C(Nc1cccc(-c2cccc(S(=O)(=O)NC(CC(=O)O)c3ccccc3)c2)c1)NC1CC1 (stereo unspecified) | 120 °C
8 | CN(C)C(=O)c1nc(-c2cccc3ccccc23)no1 | 109 to 110 °C
9 | Cc1cccc2c(=O)cc(N3CCOCC3)oc12 | 148 °C
10 | O=C(Nc1nc(-c2ccoc2)c(C(=O)C2CCOCC2)s1)c1ccnc(Cl)c1 | 202 to 204 °C
11 | O=C(O)c1cc(CCl)ccc1O | 144 to 147 °C
12 | CC(C)c1[nH]cnc1CO | 121 to 123 °C
13 | CCOCc1cc2c([N+](=O)[O-])cccc2cn1 | 54 °C
14 | O=COCCCCCC(=O)NC[C@@H]1CN2C(=O)C[C@H]2O1 (racemic) | 61.5 to 63 °C
15 | CN1C[C@@H]2CN(c3ccc4nc(Br)cn4n3)C[C@@H]2C1 | 144 to 146 °C
16 | N#Cc1ccc(OCCCCOc2cccc(-c3cc4ccc(C#N)cc4o3)c2)cc1 | 129 to 130 °C
17 | COc1cccc(-c2ncc3n2C=CN(C)C3)c1 | 211 to 214 °C
18 | O=C(NCCc1c[nH]c2ccc(C(=O)Nc3ccccc3)cc12)OCc1ccccc1 | 136 to 138 °C
19 | COc1cc(OC)nc(Oc2cccc3c2C(=O)OC3F)n1 (stereo unspecified) | 172 to 174 °C
20 | CC(C)(C)c1cc(CCc2ccccc2NC(=O)NC2CCN(CCc3ccc(F)cc3)CC2)cc(C(C)(C)C)c1O | 117 to 119 °C

Row | SMILES | melting point
21 | N#CCCNC(=O)c1cccc(-c2cccc3c2CN(Cc2cccc(C(F)(F)F)c2)C3=O)c1 | 191 to 192 °C
22 | CCCCC1c2ccccc2-c2ccccc2N1S(=O)(=O)c1ccc(O)cc1 (stereo unspecified) | 149 to 151 °C
23 | COc1ccc(-c2c(Cl)c(CCl)nc3sc4c(c23)CCN(C(=O)c2ccccc2)C4)cc1OC | 208 to 209 °C
24 | OC1CN(C(=S)Nc2ccccc2)Cc2sccc21 (stereo unspecified) | 168 °C
25 | CS(=O)(=O)NC(=O)CCn1c2ccc(O)cc2c2c3c(c(-c4ccccc4Cl)cc21)C(=O)NC3=O | 290 to 296 °C
26 | c1nc2c(cc1NC1=NCCN1)CCCC2 | 201 to 203 °C
27 | COC(=O)Nc1cccc(CC(=O)NC(C)(C)C)c1 | 123 to 124 °C
28 | Brc1cccc(P(c2ccccc2)c2ccccc2)n1 | 81 °C
29 | CCOC(=O)C1C(C)C=CC(NC(=O)OC(C)(C)C)C1[N+](=O)[O-] (stereo unspecified) | 139 to 145 °C
30 | CCOC(=O)CC(=O)c1cc(F)c(OP(=O)(Oc2ccccc2)Oc2ccccc2)nc1Nc1ccc(F)cc1F | 85 to 86 °C
31 | COc1cc(C)c(C(=O)O)c(OC)c1OC | 95 to 97 °C
32 | CC(=O)N1CCC(c2ccc3c(c2OCc2ccccc2)CCCC3)CC1 | 108 to 110 °C
33 | C=CCONC(=O)c1nc(-c2ccc(F)cc2)cc(N)c1Cl | 182 to 185 °C
34 | NC(=O)c1ccc(CCn2ccn(C3CCc4ccccc4C3)c2=S)cc1 (stereo unspecified) | 158 to 160 °C
35 | CS(=O)c1ccc(-c2nc3n(c2-c2ccncc2)CCC3)cc1 (stereo unspecified) | 164 to 166 °C
36 | Cc1ccc(S(=O)(=O)N2CCC(c3ccc4c(c3)C(=O)CCCC4)CC2)cc1 | 165 to 169 °C
37 | CCCCCCCCCCNC(=O)OC1CCN(C(=O)OCCCCCCNC(=O)Oc2ccc(Oc3ccccc3)cc2)CC1 | 87 to 91 °C
38 | COc1ccc2c(c1)CCC2=NNS(=O)(=O)c1ccc(C)cc1 | 195 to 196 °C
39 | O=C(O)CCCC(=O)ON1C(=O)CCC1=O | 81 to 83 °C
40 | COC(=O)/C=C/c1nc(C=O)ccc1OC | 132 to 134 °C

Row | SMILES | melting point
41 | O=C1Nc2sccc2C(=O)N2CC[C@@H]12 | 272 to 274 °C
42 | NC(=O)N(O)CCCCNC(=O)c1cccc(Oc2ccccc2)c1 | 131 to 133 °C
43 | [N-]=[N+]=NC1CC(n2cc(Cl)c(=O)[nH]c2=O)OC1CO (stereo unspecified) | 65 °C
44 | CCOC(=O)C1=C(COCC(=O)O)NC(C)=C(C(=O)OC)C1c1ccccc1Cl (stereo unspecified) | 150 to 154 °C
45 | CCN(S(=O)(=O)NC(=O)N1N=C(C)CC1c1ccccc1)S(=O)(=O)N(C)C (stereo unspecified) | 138 to 139 °C
46 | COc1c(C)c(C)c(OC)c(CBr)c1C | 71 to 72 °C
47 | CCOc1ccc(C(=O)COC(C)=O)cc1 | 81 to 82 °C
48 | Cc1c(NC(=O)c2ccc(OC[C@@H]3CCCO3)cc2)ccc2cc(CNCC3CC3)cnc12 | 156 to 158 °C
49 | COc1ccc2c(c1)c(O)c(C(=O)Nc1ccccc1)c(=O)n2C | 199 to 200 °C
50 | COC(=O)C=C1NCC(CO)OC1=O (stereo unspecified) | 112 to 114 °C
51 | CC(C)CCS(=O)(=O)NC(=O)/C=C/c1cc(OC(C)C)nn1Cc1ccc(C(F)(F)F)cc1Cl | 139 to 140 °C
52 | NC(=O)c1cccc(-c2ccc(Oc3ccc(F)cc3)cc2)n1 | 150 to 152 °C
53 | CC(C)(C)c1cc(SCC(=O)N2CCN(c3ccc(NC(=N)c4cccs4)cc3)CC2)cc(C(C)(C)C)c1O | 67 to 69 °C
54 | CCCC1=C(C(=O)OCC)C(c2ccccc2C)c2c[nH]nc2N1 (stereo unspecified) | 178 °C
55 | CC1=CC(c2ccc(F)c(Cl)c2)C2=C(CCCC2=O)N1 (stereo unspecified) | 164 to 167 °C
56 | O=C(Nc1ccc(C(F)(F)F)cc1)NC1CCN(S(=O)(=O)c2ccc(C(=O)O)cc2)CC1 | 188 to 192 °C
57 | CCCCCCC(C)(C)c1ccc(C2CCCNC2)c(O)c1 (stereo unspecified) | 138 to 140 °C
58 | O=C(Nc1ccc(Cl)cc1)NC1N=C(c2ccccc2)c2ccccc2N(CC(=O)N2CCCC2)C1=O (stereo unspecified) | 264 to 266 °C

Now from value to molecule:

Row | melting point | SMILES
59 | 127 to 128 °C | COC1CC(C(C)CCCC(C)C)C2(C)CCC3C(=C12)CCC1CC(O)CCC13C (stereo unspecified)
60 | 183 to 184 °C | O=C(O)C1(C(F)(F)F)NNC2=C1CCCC2 (stereo unspecified)
61 | 89 to 90 °C | COc1ccccc1[Si](C)(C)COc1cc(C(C)(C)C)c(O)c(C(C)(C)C)c1
62 | 119 to 122 °C | CCOC(=O)/C=C/c1cc(OC)cc(OC)c1C#N
63 | 240 to 242 °C | CC(=O)Oc1c(C)cc(NC(=O)Nc2c(-c3ccccc3C)c3cc(Cl)c(C)cc3oc2=O)cc1C
64 | 181 to 183 °C | O=C1c2cscc2Nc2ccccc2N1Cc1ccc(Cl)c(C(F)(F)F)c1
65 | 154 °C | Cc1ccccc1C(=O)COc1c(C(=O)c2ccc(Cl)c(C)c2Cl)c(C)nn1C
66 | 172 to 174 °C | CCc1cc2[nH]c(=O)cc(Cl)c2c(CC)n1
67 | 255 to 260 °C | CCOP(=O)(OCC)c1cc2cc(N)c(Cl)cc2[nH]c1=O
68 | 198 °C | CCCCC1(C(F)(F)F)NC(=O)Nc2ccc(F)cc21 (racemic)
69 | > 220 °C | COc1ccc(-c2cnc3[nH]c4ccccc4c3c2)cc1
70 | 90 to 95 °C | CN(CCC(=O)O)C(=O)N(c1ccc(Cl)cc1)C(C)(C)C
71 | 134 to 135 °C | CC1(C)CN=C(c2cnc3ccccc3c2)c2ccccc2O1
72 | 95 to 97 °C | CCOC(=O)C(=O)Nc1cc(N2CCOCC2)ccc1OC
73 | 170 °C | COc1cc(OC)nc(NC(=O)NS(=O)(=O)c2ccccc2OC(F)(F)F)n1
74 | 80 to 85 °C | O=C(O)C(CCc1ccccc1)CC1(C(=O)Nc2cccnc2)CCCC1 (stereo unspecified)
75 | 127 to 128 °C | COc1cc(OC)nc(N(C(=S)Oc2ccccc2)C(=S)Oc2ccccc2)n1
76 | 76 °C | CCOC(=O)c1c(N(C)C)cc(C)c([N+](=O)[O-])c1Cl
77 | 111 to 112 °C | CCOC(=O)c1cc2cc(Cl)cc([N+](=O)[O-])c2o1
78 | 193 to 196 °C | CC(=O)C1(O)CCC2C3CCC4=CC(=O)CCC4(C)C3C(Cl)CC21C (stereo unspecified)
79 | 104 to 105 °C | CON=C(C(C)=NN=Cc1ccccc1C(=NOC)C(=O)OC)c1ccc(Cl)cc1
80 | 163 °C | Nc1cc(=O)n(Cc2cccc([N+](=O)[O-])c2)[nH]1

Row | melting point | SMILES
81 | 173 °C | Cc1ccc(CNc2ccc3c(CNC(=O)c4ccc(F)cc4)cccc3n2)o1
82 | 172 to 174 °C | CCC(CC)NC(=O)C(C)(C)COc1cccc2nc(C)c(C(=O)O)c(N)c12
83 | 103 to 104 °C | CCOC(=O)C(Cc1ccc(OCCNC(=O)c2ccc(-c3ccccc3)cc2)cc1)Oc1ccccc1 (stereo unspecified)
84 | 109 to 112 °C | COC(=O)Nc1c(Cl)ccc(C)c1F
85 | 170 °C | O=C(Cc1ccc(Cl)cc1)Nc1cccc2nc(N[C@@H]3CCc4ccccc43)ccc12
86 | 118 to 119 °C | CNc1cn(-c2cncc(F)c2)nc1Cl
87 | 239 to 241 °C | CC(C)(O)c1ccc(-c2cnc3c(n2)N(CCN2CCOCC2)CC(=O)N3)cn1
88 | 208 to 210 °C | COc1cc2c(cc1C(F)(F)F)N(C(=O)Nc1ccc(Sc3cccnc3)nc1)CC2
89 | 230 °C | Cc1cccc(C(=O)Nc2nc3ccccc3c(NCc3ccccc3)c2C#N)c1
90 | 126 to 128 °C | Ic1cnc2c(c1)NCCN2
91 | 101 to 103 °C | CC(=O)OCc1nc(Cl)cc(N2CCCC2)n1
92 | 143 °C | CN(CCN1CCC(Nc2nc3ccccc3n2Cc2ccc(F)cc2)CC1)c1nccs1
93 | 162 to 165 °C | CCCCNS(=O)(=O)CC(O)C(O)C(CC1CCCCC1)NC(=O)c1ccc(O)c(O)c1 (stereo unspecified)
94 | 137 to 138 °C | CCCCOC(=O)NS(=O)(=O)/C=C/c1cc(OCCCC)nn1Cc1ccc(Cl)cc1Cl
95 | 214 to 217 °C | Nc1nc2c(Cl)ncnc2n1C1OC(CO)C(O)C1O (stereo unspecified)
96 | 289 °C | O=C(NC1=Nc2cc(O)ccc2C2=NCCN12)c1cccnc1
97 | 114 to 115 °C | O=C(CCC(=O)N1CCC[C@H]1C(=O)O)[C@H](Cc1ccccc1)OCc1ccccc1
98 | 217 to 219 °C | CNC(=O)C(Cc1ccc(OCCc2nc(-c3ccccc3)oc2C)cc1)C(=O)NC
99 | 129 to 131 °C | O=c1cc(-c2ccccc2)c2ccc(COc3cc(F)cc(-c4ccccc4)c3)cc2o1
100 | 31 °C | CCOC(=O)c1cc2cc(OCCCCCBr)ccc2o1
101 | 191 to 193 °C | Cc1ccc(/C=C/C2=CCN(Cc3nc4ccccc4[nH]3)CC2)o1
